The kinase profiling compilation of Christmann-Franck et al. (2016)

Experiments:
Assay in all cases: radiometric filter-binding kinase assay, Kinase HotSpot
Conditions in all cases: compound 0.5 µM; ATP 10 µM
ABL2 (human) = ABL2 (human) (UniProt P42684)
ACVRL1 (human) = ACVRL1 (human) (UniProt P37023)
CAMK1D (human) = CAMK1D (human) (UniProt Q8IU85)
CAMK4 (human) = CAMK4 (human) (UniProt Q16566)
CDK1 CCNB1 (human) = CDK1 CCNB1 (human) (UniProt P06493+P14635)
CDK9 CCNT1 (human) = CDK9 CCNT1 (human) (UniProt P50750+O60563)
CHEK1 (human) = CHEK1 (human) (UniProt O14757)
CHEK2 (human) = CHEK2 (human) (UniProt O96017)
CSNK2A2 (human) = CSNK2A2 (human) (UniProt P19784)
Chain of CSNK2A2 (human) (P19784 whole entry, looked up): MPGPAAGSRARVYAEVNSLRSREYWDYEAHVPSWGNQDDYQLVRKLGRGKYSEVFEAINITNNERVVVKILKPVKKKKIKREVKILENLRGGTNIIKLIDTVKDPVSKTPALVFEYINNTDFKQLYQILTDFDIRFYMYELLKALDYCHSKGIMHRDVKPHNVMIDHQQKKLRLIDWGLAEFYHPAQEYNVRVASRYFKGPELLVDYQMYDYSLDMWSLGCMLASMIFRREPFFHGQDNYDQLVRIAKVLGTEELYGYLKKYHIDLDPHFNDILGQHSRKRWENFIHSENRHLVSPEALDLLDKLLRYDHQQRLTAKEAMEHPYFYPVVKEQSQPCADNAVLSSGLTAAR

DAPK3 (human) = DAPK3 (human) (UniProt O43293)
DYRK1A (human) = DYRK1A (human) (UniProt Q13627)
DYRK1B (human) = DYRK1B (human) (UniProt Q9Y463)
Chain of DYRK1B (human) (Q9Y463 whole entry, looked up): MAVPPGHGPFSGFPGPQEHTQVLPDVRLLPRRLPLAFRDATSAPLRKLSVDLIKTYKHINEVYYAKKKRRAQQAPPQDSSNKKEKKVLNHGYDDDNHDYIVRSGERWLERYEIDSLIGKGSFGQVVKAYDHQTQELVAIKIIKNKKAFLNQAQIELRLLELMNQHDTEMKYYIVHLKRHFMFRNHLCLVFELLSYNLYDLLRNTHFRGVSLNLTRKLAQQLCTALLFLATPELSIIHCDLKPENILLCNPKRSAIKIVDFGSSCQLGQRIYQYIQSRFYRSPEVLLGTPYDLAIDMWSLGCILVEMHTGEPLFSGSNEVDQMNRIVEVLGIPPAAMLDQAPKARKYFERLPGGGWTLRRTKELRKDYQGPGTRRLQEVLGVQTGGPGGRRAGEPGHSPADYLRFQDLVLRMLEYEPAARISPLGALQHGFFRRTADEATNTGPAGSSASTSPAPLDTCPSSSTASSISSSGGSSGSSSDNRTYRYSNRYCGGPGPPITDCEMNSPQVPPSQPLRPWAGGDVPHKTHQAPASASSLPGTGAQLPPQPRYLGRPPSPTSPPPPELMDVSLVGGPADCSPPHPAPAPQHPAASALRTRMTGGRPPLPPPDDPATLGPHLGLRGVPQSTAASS

DYRK4 (human) = DYRK4 (human) (UniProt Q9NR20)
FGR (human) = FGR (human) (UniProt P09769)
FRK (human) = FRK (human) (UniProt P42685)
Chain of FRK (human) (P42685 whole entry, looked up): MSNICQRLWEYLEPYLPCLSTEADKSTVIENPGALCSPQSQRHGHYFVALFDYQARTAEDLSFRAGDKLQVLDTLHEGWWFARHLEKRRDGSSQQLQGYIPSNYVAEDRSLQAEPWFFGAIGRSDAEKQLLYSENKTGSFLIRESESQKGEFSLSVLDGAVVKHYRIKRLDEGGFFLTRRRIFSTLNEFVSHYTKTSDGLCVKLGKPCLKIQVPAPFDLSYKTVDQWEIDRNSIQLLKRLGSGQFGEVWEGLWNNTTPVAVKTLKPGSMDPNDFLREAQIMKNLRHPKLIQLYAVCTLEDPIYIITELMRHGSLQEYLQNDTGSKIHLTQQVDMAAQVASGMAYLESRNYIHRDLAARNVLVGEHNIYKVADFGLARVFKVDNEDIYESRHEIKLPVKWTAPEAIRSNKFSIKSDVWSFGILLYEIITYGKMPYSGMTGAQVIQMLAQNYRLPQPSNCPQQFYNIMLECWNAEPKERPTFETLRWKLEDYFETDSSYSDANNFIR

HCK (human) = HCK (human) (UniProt P08631)
JAK3 JH1 JH2 (human) = JAK3 JH1 JH2 (human) (UniProt P52333)
KDR (human) = KDR (human) (UniProt P35968)
LRRK2 (human) = LRRK2 (human) (UniProt Q5S007)
MAP2K2 (human) = MAP2K2 (human) (UniProt P36507)
MAP3K11 (human) = MAP3K11 (human) (UniProt Q16584)
Chain of MAP3K11 (human) (Q16584 whole entry, looked up): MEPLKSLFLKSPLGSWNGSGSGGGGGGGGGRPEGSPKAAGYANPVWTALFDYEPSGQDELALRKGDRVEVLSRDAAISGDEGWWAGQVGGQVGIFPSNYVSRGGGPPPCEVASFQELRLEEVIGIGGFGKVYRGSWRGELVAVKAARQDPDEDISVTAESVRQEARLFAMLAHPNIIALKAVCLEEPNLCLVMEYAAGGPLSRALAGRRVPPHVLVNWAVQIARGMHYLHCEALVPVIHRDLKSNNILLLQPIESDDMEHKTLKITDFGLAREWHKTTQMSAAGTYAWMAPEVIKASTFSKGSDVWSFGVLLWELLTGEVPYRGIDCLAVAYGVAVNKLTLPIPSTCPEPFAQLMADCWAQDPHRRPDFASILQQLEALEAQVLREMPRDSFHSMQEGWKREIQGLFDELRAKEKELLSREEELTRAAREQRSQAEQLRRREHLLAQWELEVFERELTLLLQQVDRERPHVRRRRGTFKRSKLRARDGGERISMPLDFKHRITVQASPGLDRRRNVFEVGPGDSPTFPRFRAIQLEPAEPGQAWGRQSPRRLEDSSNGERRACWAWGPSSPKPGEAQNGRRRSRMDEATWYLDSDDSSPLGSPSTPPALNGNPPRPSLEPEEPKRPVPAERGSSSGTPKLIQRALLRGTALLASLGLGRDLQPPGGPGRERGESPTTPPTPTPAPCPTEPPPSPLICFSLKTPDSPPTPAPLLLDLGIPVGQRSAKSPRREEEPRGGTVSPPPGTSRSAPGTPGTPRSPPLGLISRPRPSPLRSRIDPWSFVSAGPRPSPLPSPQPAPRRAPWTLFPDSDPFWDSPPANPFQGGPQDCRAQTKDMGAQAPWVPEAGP

MAP3K3 (human) = MAP3K3 (human) (UniProt Q99759)
MAP4K2 (human) = MAP4K2 (human) (UniProt Q12851)
MARK1 (human) = MARK1 (human) (UniProt Q9P0L2)
MARK2 (human) = MARK2 (human) (UniProt Q7KZI7)
MINK1 (human) = MINK1 (human) (UniProt Q8N4C8)
NUAK1 (human) = NUAK1 (human) (UniProt O60285)
OXSR1 (human) = OXSR1 (human) (UniProt O95747)
PAK3 (human) = PAK3 (human) (UniProt O75914)
Chain of PAK3 (human) (O75914 whole entry, looked up): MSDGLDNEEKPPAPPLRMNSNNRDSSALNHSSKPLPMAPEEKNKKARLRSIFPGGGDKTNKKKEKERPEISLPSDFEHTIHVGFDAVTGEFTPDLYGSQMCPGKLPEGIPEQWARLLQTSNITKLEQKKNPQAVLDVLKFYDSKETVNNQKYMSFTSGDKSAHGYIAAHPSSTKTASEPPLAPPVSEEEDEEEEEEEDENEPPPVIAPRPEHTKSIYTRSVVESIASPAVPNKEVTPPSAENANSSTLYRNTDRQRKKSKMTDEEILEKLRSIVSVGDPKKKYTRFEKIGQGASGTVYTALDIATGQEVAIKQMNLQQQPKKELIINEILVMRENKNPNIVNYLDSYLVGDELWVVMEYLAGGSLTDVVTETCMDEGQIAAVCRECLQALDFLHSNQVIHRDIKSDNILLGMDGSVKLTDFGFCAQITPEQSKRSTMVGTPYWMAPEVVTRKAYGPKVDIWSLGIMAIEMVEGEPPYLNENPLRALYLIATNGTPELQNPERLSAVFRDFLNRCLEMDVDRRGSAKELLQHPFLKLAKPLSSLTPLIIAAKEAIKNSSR

PAK4 (human) = PAK4 (human) (UniProt O96013)
PDGFRB (human) = PDGFRB (human) (UniProt P09619)
PDPK1 (human) = PDPK1 (human) (UniProt O15530)
Chain of PDPK1 (human) (O15530 whole entry, looked up): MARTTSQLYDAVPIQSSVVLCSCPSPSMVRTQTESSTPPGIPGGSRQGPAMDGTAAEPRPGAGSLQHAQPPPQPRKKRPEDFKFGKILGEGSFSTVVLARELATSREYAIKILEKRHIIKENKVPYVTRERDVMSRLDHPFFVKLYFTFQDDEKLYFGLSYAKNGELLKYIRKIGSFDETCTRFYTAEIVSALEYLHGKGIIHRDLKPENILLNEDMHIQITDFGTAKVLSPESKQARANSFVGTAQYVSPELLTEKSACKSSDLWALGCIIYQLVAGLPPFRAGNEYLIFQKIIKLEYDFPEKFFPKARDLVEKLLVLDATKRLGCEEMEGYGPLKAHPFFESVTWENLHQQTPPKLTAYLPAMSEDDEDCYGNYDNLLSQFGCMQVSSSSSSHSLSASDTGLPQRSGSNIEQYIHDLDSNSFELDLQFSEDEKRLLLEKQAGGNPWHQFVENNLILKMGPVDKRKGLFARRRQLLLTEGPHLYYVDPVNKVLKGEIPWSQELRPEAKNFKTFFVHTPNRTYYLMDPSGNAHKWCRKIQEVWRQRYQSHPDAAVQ

PHKG2 (human) = PHKG2 (human) (UniProt P15735)
PKN2 (human) = PKN2 (human) (UniProt Q16513)
PRKCA (human) = PRKCA (human) (UniProt P17252)
PRKCI (human) = PRKCI (human) (UniProt P41743)
PRKCZ (human) = PRKCZ (human) (UniProt Q05513)
PTK6 (human) = PTK6 (human) (UniProt Q13882)
Chain of PTK6 (human) (Q13882 whole entry, looked up): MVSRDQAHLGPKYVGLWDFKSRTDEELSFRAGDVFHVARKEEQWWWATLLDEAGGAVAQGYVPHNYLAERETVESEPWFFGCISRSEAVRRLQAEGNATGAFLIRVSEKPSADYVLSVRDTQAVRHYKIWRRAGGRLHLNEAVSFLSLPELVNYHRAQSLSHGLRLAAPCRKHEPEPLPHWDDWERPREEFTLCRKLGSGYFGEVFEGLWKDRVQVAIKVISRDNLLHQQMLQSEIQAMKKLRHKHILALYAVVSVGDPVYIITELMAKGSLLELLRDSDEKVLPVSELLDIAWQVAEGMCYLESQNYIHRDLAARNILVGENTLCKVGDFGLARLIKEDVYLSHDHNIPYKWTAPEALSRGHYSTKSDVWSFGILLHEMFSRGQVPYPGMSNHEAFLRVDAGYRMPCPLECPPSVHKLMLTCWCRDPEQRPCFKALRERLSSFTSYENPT

STK11 (human) = STK11 (human) (UniProt Q15831)
Chain of STK11 (human) (Q15831 whole entry, looked up): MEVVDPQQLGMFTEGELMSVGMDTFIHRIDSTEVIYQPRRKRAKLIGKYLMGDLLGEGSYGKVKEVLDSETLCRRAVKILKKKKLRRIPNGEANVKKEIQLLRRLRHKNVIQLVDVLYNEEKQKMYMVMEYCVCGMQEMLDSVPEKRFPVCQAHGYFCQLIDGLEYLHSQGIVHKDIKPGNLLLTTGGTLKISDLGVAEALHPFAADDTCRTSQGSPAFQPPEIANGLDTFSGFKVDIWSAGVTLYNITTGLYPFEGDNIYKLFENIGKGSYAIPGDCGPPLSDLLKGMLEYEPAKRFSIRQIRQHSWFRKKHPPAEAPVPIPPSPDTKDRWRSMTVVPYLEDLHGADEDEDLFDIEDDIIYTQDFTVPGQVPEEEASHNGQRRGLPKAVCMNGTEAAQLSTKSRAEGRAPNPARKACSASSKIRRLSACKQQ

TEK (human) = TEK (human) (UniProt Q02763)
TTK (human) = TTK (human) (UniProt P33981)
VRK1 (human) = VRK1 (human) (UniProt Q99986)
Chain of VRK1 (human) (Q99986 whole entry, looked up): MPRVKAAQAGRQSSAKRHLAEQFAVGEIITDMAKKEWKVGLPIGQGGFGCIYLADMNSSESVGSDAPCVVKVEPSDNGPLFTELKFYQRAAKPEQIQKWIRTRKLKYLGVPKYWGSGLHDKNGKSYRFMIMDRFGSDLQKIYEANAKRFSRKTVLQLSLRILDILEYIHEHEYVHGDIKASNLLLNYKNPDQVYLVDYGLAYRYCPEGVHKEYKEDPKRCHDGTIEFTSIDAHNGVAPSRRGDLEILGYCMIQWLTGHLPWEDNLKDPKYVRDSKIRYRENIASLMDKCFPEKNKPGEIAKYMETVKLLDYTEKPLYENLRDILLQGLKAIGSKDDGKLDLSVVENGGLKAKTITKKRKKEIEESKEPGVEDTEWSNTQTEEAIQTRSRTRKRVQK

For CN([C@@H](Cc1ccc(OS(=O)(=O)c2cccc3cnccc23)cc1)C(=O)N1CCN(c2ccccc2)CC1)S(=O)(=O)c1cccc2cnccc12, the residual activity (ABL2 (human)) was 98.9%, the residual activity (ACVRL1 (human)) was 103% and the residual activity (CAMK1D (human)) was 101%. The residual activity (CAMK4 (human)) was 102%, the residual activity (CDK1 CCNB1 (human)) was 108% and the residual activity (CDK9 CCNT1 (human)) was 100%. The residual activity (CHEK1 (human)) was 99.5%, the residual activity (CHEK2 (human)) was 101% and the residual activity (CSNK2A2 (human)) was 121%. For the same compound, the residual activity (DAPK3 (human)) was 106%, the residual activity (DYRK1A (human)) was 102% and the residual activity (DYRK1B (human)) was 101%. For the same compound, the residual activity (DYRK4 (human)) was 97.8%, the residual activity (FGR (human)) was 99.5% and the residual activity (FRK (human)) was 101%. It also gave a residual activity (HCK (human)) of 97.4%, a residual activity (JAK3 JH1 JH2 (human)) of 98% and a residual activity (KDR (human)) of 100%. The residual activity (LRRK2 (human)) was 97.1%, the residual activity (MAP2K2 (human)) was 119% and the residual activity (MAP3K11 (human)) was 105%. It also gave a residual activity (MAP3K3 (human)) of 96.4%, a residual activity (MAP4K2 (human)) of 89.5% and a residual activity (MARK1 (human)) of 96.7%. The residual activity (MARK2 (human)) was 103%, the residual activity (MINK1 (human)) was 98.2% and the residual activity (NUAK1 (human)) was 97.5%. It also gave a residual activity (OXSR1 (human)) of 101%, a residual activity (PAK3 (human)) of 102% and a residual activity (PAK4 (human)) of 94.6%. The residual activity (PDGFRB (human)) was 104%, the residual activity (PDPK1 (human)) was 96.4% and the residual activity (PHKG2 (human)) was 101%. It also gave a residual activity (PKN2 (human)) of 98.6%, a residual activity (PRKCA (human)) of 105% and a residual activity (PRKCI (human)) of 93.8%. For the same compound, the residual activity (PRKCZ (human)) was 101%, the residual activity (PTK6 (human)) was 89.7% and the residual activity (STK11 (human)) was 99%. For the same compound, the residual activity (TEK (human)) was 106%, the residual activity (TTK (human)) was 86% and the residual activity (VRK1 (human)) was 92.1%.
In the case of Nc1nnc2[nH]c3ccccc3nc1-2, the residual activity (ABL2 (human)) was 95.5%, the residual activity (ACVRL1 (human)) was 105% and the residual activity (CAMK1D (human)) was 98.3%. The residual activity (CAMK4 (human)) was 104%, the residual activity (CDK1 CCNB1 (human)) was 79.6% and the residual activity (CDK9 CCNT1 (human)) was 81.6%. For the same compound, the residual activity (CHEK1 (human)) was 187%, the residual activity (CHEK2 (human)) was 94.4% and the residual activity (CSNK2A2 (human)) was 94%. For the same compound, the residual activity (DAPK3 (human)) was 98.2%, the residual activity (DYRK1A (human)) was 95.1% and the residual activity (DYRK1B (human)) was 96%. For the same compound, the residual activity (DYRK4 (human)) was 89.2%, the residual activity (FGR (human)) was 96.3% and the residual activity (FRK (human)) was 96.8%. It also gave a residual activity (HCK (human)) of 98.6%, a residual activity (JAK3 JH1 JH2 (human)) of 68% and a residual activity (KDR (human)) of 95.8%. It also gave a residual activity (LRRK2 (human)) of 90.5%, a residual activity (MAP2K2 (human)) of 104% and a residual activity (MAP3K11 (human)) of 96.3%. For the same compound, the residual activity (MAP3K3 (human)) was 103%, the residual activity (MAP4K2 (human)) was 91.7% and the residual activity (MARK1 (human)) was 95.7%. For the same compound, the residual activity (MARK2 (human)) was 110%, the residual activity (MINK1 (human)) was 97.9% and the residual activity (NUAK1 (human)) was 86.3%. For the same compound, the residual activity (OXSR1 (human)) was 92.7%, the residual activity (PAK3 (human)) was 98.3% and the residual activity (PAK4 (human)) was 104%. It also gave a residual activity (PDGFRB (human)) of 98.1%, a residual activity (PDPK1 (human)) of 96.8% and a residual activity (PHKG2 (human)) of 96.6%. The residual activity (PKN2 (human)) was 98.7%, the residual activity (PRKCA (human)) was 71% and the residual activity (PRKCI (human)) was 103%. It also gave a residual activity (PRKCZ (human)) of 106%, a residual activity (PTK6 (human)) of 84.1% and a residual activity (STK11 (human)) of 85.7%. It also gave a residual activity (TEK (human)) of 97%, a residual activity (TTK (human)) of 102% and a residual activity (VRK1 (human)) of 103%.
COc1ccc(CNC(=O)Nc2ncc([N+](=O)[O-])s2)cc1 showed a residual activity (ABL2 (human)) of 97.9%, a residual activity (ACVRL1 (human)) of 106% and a residual activity (CAMK1D (human)) of 112%. For the same compound, the residual activity (CAMK4 (human)) was 96.7%, the residual activity (CDK1 CCNB1 (human)) was 85.1% and the residual activity (CDK9 CCNT1 (human)) was 88.1%. For the same compound, the residual activity (CHEK1 (human)) was 98%, the residual activity (CHEK2 (human)) was 99.2% and the residual activity (CSNK2A2 (human)) was 92.9%. It also gave a residual activity (DAPK3 (human)) of 106%, a residual activity (DYRK1A (human)) of 95.6% and a residual activity (DYRK1B (human)) of 99.4%. For the same compound, the residual activity (DYRK4 (human)) was 97.7%, the residual activity (FGR (human)) was 92.4% and the residual activity (FRK (human)) was 97.2%. It also gave a residual activity (HCK (human)) of 96.7%, a residual activity (JAK3 JH1 JH2 (human)) of 105% and a residual activity (KDR (human)) of 85.7%. It also gave a residual activity (LRRK2 (human)) of 87.7%, a residual activity (MAP2K2 (human)) of 73.5% and a residual activity (MAP3K11 (human)) of 101%. For the same compound, the residual activity (MAP3K3 (human)) was 87.6%, the residual activity (MAP4K2 (human)) was 113% and the residual activity (MARK1 (human)) was 106%. The residual activity (MARK2 (human)) was 106%, the residual activity (MINK1 (human)) was 90.5% and the residual activity (NUAK1 (human)) was 99.7%. It also gave a residual activity (OXSR1 (human)) of 95.9%, a residual activity (PAK3 (human)) of 94.6% and a residual activity (PAK4 (human)) of 115%. The residual activity (PDGFRB (human)) was 125%, the residual activity (PDPK1 (human)) was 90% and the residual activity (PHKG2 (human)) was 105%. The residual activity (PKN2 (human)) was 101%, the residual activity (PRKCA (human)) was 61.9% and the residual activity (PRKCI (human)) was 94.4%. For the same compound, the residual activity (PRKCZ (human)) was 96.3%, the residual activity (PTK6 (human)) was 99.6% and the residual activity (STK11 (human)) was 100%. It also gave a residual activity (TEK (human)) of 94%, a residual activity (TTK (human)) of 98.9% and a residual activity (VRK1 (human)) of 95%.
